# Earlier results in US10278390B2, “Antimicrobial transparent plastic in the form of film or extruded shape” (priority 2016, dated 2019).
# System: bacteria
smiles,measurement,value
[Ag+] [silver ions],concentrations at which the metabolism of bacteria is adversely affected,0.01 to 0.1 mg/L
